Data on nine molecules can be found in patent US11001820B2, “Delivery of therapeutic agents by a collagen binding protein” (THE BOARD OF TRUSTEES OF THE UNIVERSITY OF ARKANSAS, priority 2011, dated 2021).

The test system of data set [1] is androgenic alopecia. Conditions: long-term (10 years) therapy; cited from earlier work.
Data set [2] in a line: Circular dichroism thermal denaturation of collagenous peptides. The class given is physicochemical. The note with it: triple helix thermostability by [θ]225, 0.3° C./min, 1 mg/ml in water. The method, then: The triple helical conformation and the stability of the collagenous peptides were verified using CD spectroscopy (See FIGS. 3 and 4). CD spectra were recorded with a J-820 CD spectropolarimeter (JASCO Co., Hachioji, Japan) equipped with a Peltier thermo controller, using a 0.5-mm quartz cuvette and connected to a data station for signal averaging. All peptide samples were dissolved in water (1 mg/ml), and stored at 4° C. for 24 h. The spectra are reported in terms of ellipticity units per mole of peptide residues [θ]mrw. Thermostability of the triple helix was monitored by the [θ]225 values of each peptide with increasing temperature at the rate of 0.3° C./min.

The nature of data set [3]: Tissue distribution of 35S-labelled PTH-CBD by whole-body autoradiography. Conditions: subcutaneous injection, 1 hour and 12 hours. The class given is in vivo, mice. The procedure: Tissue distribution was assessed by administering ^35S-labelled PTH-CBD via subcutaneous injection, followed by whole mount frozen and whole-body autoradiography. PTH-CBD with a phosphorylation site between PTH(1-33) and the CBD was purified, activated and labeled with […] as described previously. Tamai et al. (2003) Infect Immun. 71:5371-5375. Approximately 10.8 mcg of ^35S-PTH-CBD (122 kcm/mcg) was injected subcutaneously in 7 week-old mice (32-35 g). Mice were sacrificed at 1 hour or 12 hours post-injection, and then frozen in dry ice-acetone. Frozen sections ([…]) were prepared with an autocryotome, dried at −20° C., and exposed to an image plate for 4 weeks. There appeared to be an initial distribution of ^35S-PTH-CBD to a broad area of skin around the site of injection, followed by a rapid redistribution to the skin of the entire animal, as well as to several other tissues (i.e. bone, intestine, bladder) (FIG. 11).

In data set [4] the test system is C57BL/6J mice. Nature of the data set: Chemotherapy-induced alopecia (cyclophosphamide) in depilated mice. The class given is in vivo. The procedure:
We compared efficacy of CBD linked PTH agonists and antagonists in chemotherapy-induced alopecia, utilizing an experimental design published by Peters, et al., for non-CBD linked PTH compounds. Peters, et al. (2001) J Invest Dermatol 117:173-178. C57BL/6J mice (Jackson Laboratories, Bar Harbor, Me.) were depilated to synchronize the hair follicles, and cyclophosphamide (CYP, 150 mg/kg) was administered on day 9 to maximize the chemotherapy-induced damage. The agonist (PTH-CBD) and the antagonist (PTH(7-33)-CBD) were administered 2 days prior to chemotherapy, and given the long-term retention of the compounds in the skin, we administered only a single dose to cover the timing of the multiple injections of PTH agonist and antagonist in the study by Peters, et. al. The administered dose of CBD-linked compounds (320 mcg/kg) is well tolerated in mice. Ponnapakkam et al. (2011) Calcif 88:511-520. […].
We followed these studies by comparing the effects of different doses of PTH-CBD in chemotherapy-induced alopecia. In these studies, we applied the injections more distally on the back and applied a gray-scale analysis to quantify the amount of hair growth. Injecting more distally in the back allows us to compare regrowth of hair after PTH-CBD treatment with less interference from the normal hair regrowth, which normally proceeds from head to tail in mice.

The subject of data set [5] is mice. As to the kind of experiment: Chemotherapy-induced alopecia without depilation. It counts as in vivo. The method, then: While the depilated model of chemotherapy-induced alopecia provides a uniform model for comparison of drug effects, the depilation process is known to cause hair follicle injury, and may alter the response of the animals to the PTH-CBD administration. We therefore tested the effects of PTH-CBD in another model of chemotherapy-induced alopecia, where the animals were given 3 courses of cyclophosphamide therapy (50 mg/kg/wk), similar to the usual manner in which cancer patients might be treated. In this model, it takes much longer (4-6 months) for alopecia to develop.
In a second study, we compared the effects of PTH-CBD when given prophylactically, at the time of the first cycle of chemotherapy, vs. therapeutically, after the hair loss had developed. […] This is evident both visually and quantitatively in FIG. 17, using the same grey scale analysis used in our dose-response study.

Data set [6] relates to C57/BL6J mice. Nature of the data set: Depilation alopecia (waxing). The class given is in vivo. An excerpt:
The agonist PTH-CBD appears to increase hair growth by increasing the number of anagen phase hair follicles. As such, there is no reason to believe that hair growth effects should be limited to the chemotherapy model. We therefore tested both PTH-CBD and antagonist compound, PTH(7-33)-CBD, after removing hair from C57/BL6J mice by waxing (FIG. 18). […] Thus, it appears that agonist therapy is acting to promote more rapid regrowth of hair by promoting more rapid transition to the anagen phase, while the antagonist inhibited hair regrowth by blocking this transition.

The subject of data set [7] is engrafted C3H/Hej mouse. As to the kind of experiment: Alopecia areata model. The class given is in vivo. An excerpt:
Alopecia Areata is a disease of patchy hair loss due to autoimmune destruction of the hair follicles. We tested the efficacy of PTH-CBD in promoting regrowth of hair in an animal model of alopecia areata, the engrafted C3H/Hej mouse. In this model, hair loss develops variably over the first 2 months of life. Shown in FIG. 19 is the results of a single dose of PTH-CBD (320 mcg/kg subcutaneous) administered into the engrafted site, the center of the back, where there was maximal hair loss. Compared to vehicle control animals, which continued to lose hair at this site, animals receiving PTH-CBD began to show regrowth of hair within the next 1-4 days.

Data set [8] relates to ovarectomized rat. As to the kind of experiment: Ovarectomized aged rats, single dose, sacrifice 6 months after therapy. The class given is in vivo. The note with it: 6 months after single dose 320 mcg/kg. The procedure:
In this experiment, rats had their ovaries surgically removed at age 3 months. At age 9 months, rats were injected with either a single dose of PTH-CBD (320 mcg/kg) or vehicle control. Animals were sacrificed 6 months after therapy (age 15 months). […] Serum calcium was measured and there were no differences between groups (Vehicle: 13.5+/−1.1 vs. PTH-CBD: 14.3+/−1.1 mg/dl, NS). […] These findings indicate that a single injection of PTH-CBD can provide long-term suppression of endogenous PTH production, preventing the normal rise seen with age in the ovarectomized rat model, and thus may serve as a therapy for hyperparathyroidism.

For the molecule `CC(C)(C)NC(=O)[C@H]1CC[C@H]2[C@@H]3CC[C@H]4NC(=O)C=C[C@]4(C)[C@H]3CC[C@]12C` [Finasteride], the response rates entry in data set [1] was “around 50%”.

With (POG)4POA(POG)5, in data set [2], the “Melting temperatures (Tm)” value turned out to be 29 °C.

As for (POG)4POA(POG)5C-PROXYL, the “Melting temperatures (Tm)” value in data set [2] was 30 °C.

Regarding PROXYL-(POG)3POA(POG)6, the “Melting temperatures (Tm)” value in data set [2] stood at 28 °C.

In the case of PROXYL-(POG)4POA(POG)5, the “Melting temperatures (Tm)” value in data set [2] was 29 °C.

As for PROXYL-(POG)5POA(POG)4, the “Melting temperatures (Tm)” value in data set [2] worked out at 28 °C.

Consider PROXYL-(POG)6POA(POG)3, for which the “Melting temperatures (Tm)” value in data set [2] was determined as 27 °C.

“PTH-CBD: first 33 amino acids of PTH linked directly to the collagen binding domain (SEQ ID NO: 1)”: in data set [3], the tissue distribution entry was “distribution and retention to skin”. In addition, in data set [4] (100, 320, 1000 mcg/kg), the “hair regrowth, gray-scale analysis” value is recorded as “dose-dependent effect”. The hair follicle histology result in data set [4] (H&E, day 36, 320 mcg/kg) was “deeper rooting and reduced melanocyte clumping”. The “excess hair length or growth” value in data set [4] (body, ears and tail) was “no evidence of excess hair length”. In data set [4] (day 36, 320 mcg/kg), the “Counts of anagen VI hair follicles per high-powered field” value was “higher number of hair follicles”. Moreover, in data set [4] (mouse, in vivo), the adverse effects result is recorded as “no evidence of adverse effects” and the serum calcium entry was “no effect”. Moreover, in data set [4] (single dose 320 mcg/kg, 2 days prior to CYP, day 36), the “hair growth (photodocumentation)” value is “far more effective at stimulating hair growth than was the antagonist”. The “effect on hair, prophylactic vs. therapeutic dosing” value in data set [5] (grey scale analysis) is “effective in both instances”. The hair loss entry in data set [5] (single dose 320 mcg/kg subcutaneous prior to first of 3 cyclophosphamide courses) is listed as “did not develop hair loss”. Further, in data set [6] (after waxing, vehicle day 9), the anagen eruption amounted to 7 days. For the same molecule, in data set [6] (end of study (day 18)), the regrowth of hair result is “more complete regrowth of hair”. In data set [7] (single dose 320 mcg/kg), the duration of response result is listed as “sustained during the 2 month course”. Also, the “time to regrowth of hair” value in data set [7] (single dose 320 mcg/kg subcutaneous into engrafted site) lay in the range of 1 to 4 days. Moreover, in data set [8], the “Human intact PTH levels (serum levels of PTH-CBD)” value is reported as “undetectable” and the “Rat intact PTH levels (endogenous PTH production)” value is “suppressed the normal increase in endogenous PTH levels”. In addition, in data set [8] (NS vs vehicle), the serum calcium was 14.3 ± 1.1 mg/dL.

Take ^11PROXYL-(POG)3PCG(POG)4: the “Melting temperatures (Tm)” value in data set [2] was 28 °C.
